Results as given in ChEMBL document CHEMBL1133897, “Synthesis, antimalarial activity and inhibition of haem detoxification of novel bisquinolines” (Bioorg Med Chem Lett, 2001).

Key:
Plasmodium falciparum [1] = experiment: Inhibition of hydrogen peroxide-mediated haem detoxification in Plasmodium falciparum; type: functional, organism-based
Plasmodium falciparum [2] = experiment: Growth inhibition of chloroquine-sensitive Plasmodium falciparum D10; type: functional, organism-based
[3] = molecular target: T1, Histidine-rich protein PFHRP-II (Plasmodium falciparum, UniProt P05227); experiment: Inhibition of beta-hematin formation in Plasmodium falciparum; type: functional
T1 sequence (P05227 whole entry): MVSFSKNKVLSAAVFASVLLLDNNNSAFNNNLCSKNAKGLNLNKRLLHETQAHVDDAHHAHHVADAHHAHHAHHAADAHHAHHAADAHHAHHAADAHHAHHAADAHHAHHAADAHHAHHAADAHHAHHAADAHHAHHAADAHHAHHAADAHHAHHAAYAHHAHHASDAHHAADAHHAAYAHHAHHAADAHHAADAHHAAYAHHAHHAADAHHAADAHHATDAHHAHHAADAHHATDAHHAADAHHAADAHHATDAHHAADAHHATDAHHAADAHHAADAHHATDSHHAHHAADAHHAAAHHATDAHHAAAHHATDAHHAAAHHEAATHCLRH

Plasmodium falciparum [4] = experiment: Growth inhibition of chloroquine-resistant Plasmodium falciparum KI; type: functional, organism-based

| Compound | IC50 (Plasmodium falciparum [1]) [nM] | IC50 (Plasmodium falciparum [2]) [nM] | IC50 [3] [nM] | IC50 (Plasmodium falciparum [4]) [nM] |
| --- | --- | --- | --- | --- |
| CCN(CC)CCCC(C)Nc1cc(CCCCCCCCCCCCc2cc(NC(C)CCCN(CC)CC)c3ccccc3n2)nc2ccccc12 (stereo unspecified) | 37000 | 43 | 86000 | 17 |
| CCN(CC)CCCC(C)Nc1cc(CCCCCCCCCCc2cc(NC(C)CCCN(CC)CC)c3ccccc3n2)nc2ccccc12 (stereo unspecified) | 80000 | 154 | 94000 | 16 |
| CCC1CN2CCC1CC2C(O)c1ccnc2c(CNC(=O)CCCCCCCCC(=O)Nc3cccc4c(C(O)C5CC6CCN5CC6CC)ccnc34)cccc12 (stereo unspecified) | – | 50 | – | 20 |
| CCN(CC)CCCC(C)Nc1cc(CCCCCCCCc2cc(NC(C)CCCN(CC)CC)c3ccccc3n2)nc2ccccc12 (stereo unspecified) | 81000 | 123 | 97000 | 25 |
| OC(c1cc(C(F)(F)F)nc2c(C(F)(F)F)cccc12)C1CCCCN1 (stereo unspecified) [MEFLOQUINE] | 30000 | 90 | – | – |
